Like-named read-outs stand apart in the source and are kept apart here.
Columns and labels:
[1] = test system: mTORC1 and mTORC2 signaling in PC3 cells; assay: Long-term treatment vs. rapamycin in PC3 cells, Western blot; type: cell-based; details: replete, 2, 5, 18 or 24 hrs, NR1 30 μM, rapamycin 100 nM
[2] = target: HA-GST-Rheb (GTP-γ-S loaded) activating mTORC1 (Homo sapiens (Human), UniProt Q15382); assay: Rheb-dependent in vitro kinase assay (Rheb-IVK; LanthaScreen or Western readout); type: biochemical
HA-GST-Rheb (GTP-γ-S loaded) activating mTORC1, sequence (Q15382 1-181): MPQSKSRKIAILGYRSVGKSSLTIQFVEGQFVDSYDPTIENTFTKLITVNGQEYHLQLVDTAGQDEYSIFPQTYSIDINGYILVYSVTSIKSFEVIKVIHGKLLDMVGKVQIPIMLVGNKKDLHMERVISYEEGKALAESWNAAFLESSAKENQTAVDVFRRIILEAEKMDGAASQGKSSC

T389pS6K1 in MCF-7 cells = assay: Cell-based AlphaLISA assay, pS6K1 (Thr389)
S473pAkt in MCF-7 cells = assay: Cell-based AlphaLISA assay, pAkt (S473)
Rheb = Rheb (Homo sapiens (Human), UniProt Q15382); assay: Affinity Selection Mass Spectrometry (ASMS); type: binding; details: affinity (R3/R0) in Affinity Selection Mass Spectrometry assay
Rheb, sequence (Q15382 1-169 limits assumed): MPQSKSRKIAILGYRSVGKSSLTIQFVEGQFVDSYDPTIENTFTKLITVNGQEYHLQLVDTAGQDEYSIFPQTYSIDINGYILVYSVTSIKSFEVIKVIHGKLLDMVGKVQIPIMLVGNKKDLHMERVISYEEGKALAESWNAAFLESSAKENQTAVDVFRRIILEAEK
Outline: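 Affinity selection used 2 μM compound with 60 μM Rheb and 180 μM GDP for 30 min at room temperature. After 10 kDa ultrafiltration washes, protein was denatured in MeCN and bound compound quantified by C18 UPLC with Q-TOF MS, against a no-protein control.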

[3] = LanthaScreen variation, Terbium labeled T46p4E-BP1 specific antibody, read-out: IC50 in the Rheb-IVK
[4] = Rheb-dependent in vitro kinase assay, read-out: IVK IC50

Row | Structure (SMILES) | IC50 [2, 4] [nM] | IC50 (T389pS6K1 in MCF-7 cells; Homo sapiens, MCF7) [nM] | IC50 [2, 3] [nM] | ASMS (R3/R0) (Rheb) | also measured
1 | CO[C@H]1C[C@@H]2CC[C@@H](C)[C@@](O)(O2)C(=O)C(=O)N2CCCC[C@H]2C(=O)O[C@H]([C@H](C)C[C@@H]2CC[C@@H](O)[C@H](OC)C2)CC(=O)[C@H](C)/C=C(\C)[C@@H](O)[C@@H](OC)C(=O)[C@H](C)C[C@H](C)/C=C/C=C/C=C/1C [rapamycin, reference compound] | – | – | – | – | mTORC1 versus mTORC2 signaling with chronic exposure (T389pS6K1, S473pAkt) [1]: inhibits mTORC2 signaling with chronic exposure; inhibition of the Rheb-IVK ([2]; LanthaScreen variation, no FKBP12 present): did not inhibit the Rheb-IVK
2 | CCC(=O)N1CCN(c2ccc(-n3c(=O)ccc4cnc5ccc(-c6cnc7ccccc7c6)cc5c43)cc2C(F)(F)F)CC1 [Torin-1, reference compound] | – | – | ~2 | – | IC50 (T389pS6K1 in MCF-7 cells): ~1 nM; IC50 (S473pAkt in MCF-7 cells): ~5 nM
3 | CN(C)C(=O)c1ccc(Cn2c(C(=O)O)cc3c(Br)cc(Sc4ccc(Cl)c(Cl)c4)cc32)cc1 [I-102, 4-Bromo-6-(3,4-dichlorophenylthio)-1-(4-(dimethylcarbamoyl)benzyl)-1H-indole-2-carboxylic acid] | < 10000 | – | ~2100 | B (an affinity (R3/R0) between 100% and 20%) | inhibition of pAKT (S473pAkt in MCF-7 cells): did not inhibit pAKT

More lines, main results first:

Row | IC50 [2, 4] [nM] | IC50 (T389pS6K1 in MCF-7 cells; Homo sapiens, MCF7) [nM] | Structure (SMILES) | IC50 [2, 3] [nM] | ASMS (R3/R0) (Rheb) | also measured
4 | < 10000 | < 10000 | CN1CCN(c2cccc(NC(=O)c3cc4c(-c5cc(Cl)cc(Cl)c5)cc(Cl)cc4[nH]3)c2)CC1 [I-30, 6-chloro-4-(3,5-dichlorophenyl)-N-(3-(4-methylpiperazin-1-yl)phenyl)-1H-indole-2-carboxamide] | – | A (an affinity (R3/R0)>100%) | –
5 | < 10000 | < 10000 | CN1CCN(c2ccc(NC(=O)c3cc4c(Sc5ccc(Cl)cc5)cc(Cl)cc4[nH]3)cc2F)CC1 [I-141, 6-chloro-4-(4-chlorophenylthio)-N-(3-fluoro-4-(4-methylpiperazin-1-yl)phenyl)-1H-indole-2-carboxamide] | – | B (an affinity (R3/R0) between 100% and 20%) | –
6 | < 10000 | < 10000 | CN1CCC(CCNC(=O)c2cc3c(Sc4ccc(Cl)cc4Cl)cc(Cl)cc3[nH]2)CC1 [I-106, 6-chloro-4-(2,4-dichlorophenylthio)-N-(2-(1-methylpiperidin-4-yl)ethyl)-1H-indole-2-carboxamide] | – | B (an affinity (R3/R0) between 100% and 20%) | –

From patent US11339144B2 (Navitor Pharmaceuticals, Inc., priority 2017, dated 2022)
